The structures appear in SMILES notation. Where “and” joins values, the source holds several entries; their conditions need not be identical. Equal values may be shown once. Toxic doses and inconclusive results are not listed.

The test deals with P388 leukemia ip, CD2F1 mice, survival T/C. Nature of the test: NCI In Vivo Anticancer Drug Screen. Data for tumor model P388 Leukemia (intraperitoneal) in CD2F1 (CDF1) mice. As to conditions: endpoint: median survival time, higher = longer survival. In outline: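 Mice carrying the transplanted tumor received test compound or vehicle. Survival was recorded in each group, and the value is the treated-group measurement divided by that of the vehicle-treated control group.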

Setting [1] is: dose: 50.0 mg/kg/injection, schedule: Q01DX009 (ip), vehicle: saline with Tween-80.
Where [2] appears, read: dose: 100.0 mg/kg/injection, schedule: Q01DX009 (ip), vehicle: saline with Tween-80.
The mark [3] stands for this setting: dose: 200.0 mg/kg/injection, schedule: Q01DX009 (ip), vehicle: saline with Tween-80.
Setting [4] is: dose: 50.0 mg/kg/injection, schedule: Q01DX005 (ip), vehicle: Klucel (hydroxypropylcellulose) (HPC).
Setting [5] is: dose: 100.0 mg/kg/injection, schedule: Q01DX005 (ip), vehicle: Klucel (hydroxypropylcellulose) (HPC).
[6] abbreviates: dose: 200.0 mg/kg/injection, schedule: Q01DX005 (ip), vehicle: Klucel (hydroxypropylcellulose) (HPC).
Setting [7] is: dose: 25.0 mg/kg/injection, schedule: Q01DX009 (ip), vehicle: Klucel (hydroxypropylcellulose) (HPC).
Setting [8] is: dose: 50.0 mg/kg/injection, schedule: Q01DX009 (ip), vehicle: Klucel (hydroxypropylcellulose) (HPC).
The mark [9] stands for this setting: dose: 100.0 mg/kg/injection, schedule: Q01DX009 (ip), vehicle: Klucel (hydroxypropylcellulose) (HPC).
Setting [10] is: dose: 200.0 mg/kg/injection, schedule: Q01DX009 (ip), vehicle: Klucel (hydroxypropylcellulose) (HPC).
[11] abbreviates: dose: 50.0 mg/kg/injection, schedule: Q01DX005 (ip), vehicle: saline with Tween-80.
[12] abbreviates: dose: 100.0 mg/kg/injection, schedule: Q01DX005 (ip), vehicle: saline with Tween-80.
The mark [13] stands for this setting: dose: 200.0 mg/kg/injection, schedule: Q01DX005 (ip), vehicle: saline with Tween-80.

For the compound `FC(F)(F)c1ccc2c(c1)Nc1ccccc1S2`, the T/C reads like this: (dose: 12.5 mg/kg/injection, schedule: Q04DX003 (ip), vehicle: Klucel (hydroxypropylcellulose) (HPC)) 100 % of control and 105 % of control; (dose: 25.0 mg/kg/injection, schedule: Q04DX003 (ip), vehicle: Klucel (hydroxypropylcellulose) (HPC)) 103 % of control; (dose: 50.0 mg/kg/injection, schedule: Q04DX003 (ip), vehicle: Klucel (hydroxypropylcellulose) (HPC)) 108 % of control and 109 % of control; (dose: 100.0 mg/kg/injection, schedule: Q04DX003 (ip), vehicle: Klucel (hydroxypropylcellulose) (HPC)) 108 % of control and 118 % of control; (dose: 200.0 mg/kg/injection, schedule: Q04DX003 (ip), vehicle: Klucel (hydroxypropylcellulose) (HPC)) 114 % of control and 116 % of control.

In the case of `O=C(NNC(=S)Nc1ccccc1)c1ccncc1`, the T/C reads like this: under setting [1], 107 % of control; under setting [2], 107 % of control; under setting [3], 107 % of control.

As for `COC(=O)C(O)NC(N)=O` (configuration not stated), the T/C reads like this: under setting [1], 98 % of control; under setting [2], 94 % of control; under setting [3], 89 % of control.

Turning to `C=C1CC(C)(Cl)C(Cl)CC1/C=C/Cl` (configuration not stated), the T/C runs as follows: (dose: 1.87 mg/kg/injection, schedule: Q01DX009 (ip), vehicle: saline + alcohol) 100 % of control; (dose: 3.75 mg/kg/injection, schedule: Q01DX009 (ip), vehicle: saline + alcohol) 99 % of control; (dose: 7.5 mg/kg/injection, schedule: Q01DX009 (ip), vehicle: saline + alcohol) 103 % of control; (dose: 15.0 mg/kg/injection, schedule: Q01DX009 (ip), vehicle: saline + alcohol) 100 % of control.

Consider `C=CC1(C)CCC2C(=CCC3C(C)(COC4OC(CO)C(O)C(O)C4O)C(O)CCC23C)C1` (configuration not stated), for which the T/C reads like this: (dose: 3.0 mg/kg/injection, schedule: Q01DX009 (ip), vehicle: Klucel (hydroxypropylcellulose) (HPC)) 100 % of control; (dose: 6.0 mg/kg/injection, schedule: Q01DX009 (ip), vehicle: Klucel (hydroxypropylcellulose) (HPC)) 94 % of control; (dose: 12.0 mg/kg/injection, schedule: Q01DX009 (ip), vehicle: Klucel (hydroxypropylcellulose) (HPC)) 103 % of control; (dose: 24.0 mg/kg/injection, schedule: Q01DX009 (ip), vehicle: Klucel (hydroxypropylcellulose) (HPC)) 103 % of control; (dose: 48.0 mg/kg/injection, schedule: Q01DX009 (ip), vehicle: Klucel (hydroxypropylcellulose) (HPC)) 106 % of control.

For the compound `N=C(N)Sc1ccc([N+](=O)[O-])cc1Cl`, the T/C reads like this: under setting [4], 104 % of control; under setting [5], 104 % of control; under setting [6], 101 % of control.

In the case of `CC(Br)(C(Br)c1ccccc1)[N+](=O)[O-]` (configuration not stated), the T/C was 110 % of control under setting [7] and 108 % of control under setting [8].

Regarding `Cc1nn(-c2ccccc2)c2c1C(c1ccccc1)C(C#N)=C(N)O2` (configuration not stated), the T/C was 100 % of control under setting [8], 100 % of control under setting [9] and 100 % of control under setting [10].

With `CSCCC1NC(=O)C(C(C)=Nc2ccccc2)=C1O` (configuration not stated), the T/C was 94 % of control under setting [1]; 92 % of control under setting [2]; 98 % of control under setting [3]; 99 % of control (dose: 400.0 mg/kg/injection, schedule: Q01DX009 (ip), vehicle: saline with Tween-80).

As for `C[C@]12C=CC(=O)C=C1CC[C@@H]1[C@@H]2[C@@H](O)C[C@@]2(C)[C@H]1CC[C@]2(O)C(=O)CO`, the T/C is 106 % of control under setting [4]; 100 % of control under setting [5]; 91 % of control under setting [6]; 105 % of control (dose: 400.0 mg/kg/injection, schedule: Q01DX005 (ip), vehicle: Klucel (hydroxypropylcellulose) (HPC)).

In the case of `O=C(O)c1cccc2c1Oc1c(cccc1C(=O)O)S2`, the T/C is 98 % of control under setting [11], 107 % of control under setting [12] and 108 % of control under setting [13].

Regarding `CN1C(=O)CC2C(=O)N(Cc3ccccc3)C(=O)C2C1=O` (configuration not stated), the T/C is, setting by setting: under setting [11], 101 % of control; under setting [12], 101 % of control; under setting [13], 96 % of control.

Regarding `CN(C)N=Nc1ccc(-c2ccccc2)cc1`, the T/C by setting is: (dose: 12.5 mg/kg/injection, schedule: Q01DX009 (ip), vehicle: saline with Tween-80) 100 % of control and 104 % of control; (dose: 25.0 mg/kg/injection, schedule: Q01DX009 (ip), vehicle: saline with Tween-80) 102 % of control and 115 % of control; under setting [1], 101 % of control and 110 % of control; under setting [2], 102 % of control and 117 % of control.

As for `COc1ccc(Cl)cc1NC(=O)Nc1nccs1`, the T/C by setting is: under setting [7], 90 % of control; under setting [8], 90 % of control; under setting [9], 90 % of control; under setting [10], 88 % of control.

For `Cc1ccccc1SSCCN`, the T/C is 103 % of control under setting [4] and 103 % of control under setting [5].

Turning to `Nc1nc(N)c2c(Cl)c(CNc3ccc(C(=O)NC(CC(=O)O)C(=O)O)cc3)ccc2n1` (configuration not stated), the T/C runs as follows: (dose: 0.39 mg/kg/injection, schedule: Q01DX009 (ip), vehicle: saline with Tween-80) 210 % of control; (dose: 0.78 mg/kg/injection, schedule: Q01DX009 (ip), vehicle: saline with Tween-80) 201 % of control; (dose: 1.56 mg/kg/injection, schedule: Q01DX009 (ip), vehicle: saline with Tween-80) 90 % of control; (dose: 780.0 micrograms/kg/injection, schedule: Q01DX009 (ip), vehicle: saline with Tween-80) 194 % of control; (dose: 1560.0 micrograms/kg/injection, schedule: Q01DX009 (ip), vehicle: saline with Tween-80) 94 % of control.

With `C[Si](C)(C)ONC(=O)c1ccccc1`, the T/C (dose: 6.25 mg/kg/injection, schedule: Q01DX009 (ip), vehicle: distilled water + Tween-80) was 100 % of control; the T/C (dose: 12.5 mg/kg/injection, schedule: Q01DX009 (ip), vehicle: distilled water + Tween-80) was 92 % of control; the T/C (dose: 25.0 mg/kg/injection, schedule: Q01DX009 (ip), vehicle: distilled water + Tween-80) was 109 % of control; the T/C (dose: 50.0 mg/kg/injection, schedule: Q01DX009 (ip), vehicle: distilled water + Tween-80) is 102 % of control; the T/C (dose: 100.0 mg/kg/injection, schedule: Q01DX009 (ip), vehicle: distilled water + Tween-80) was 99 % of control; the T/C (dose: 200.0 mg/kg/injection, schedule: Q01DX009 (ip), vehicle: distilled water + Tween-80) is 105 % of control.

As for `COc1cccc(CN2CCN(N=O)CC2)c1`, the T/C under setting [7] was 105 % of control, the T/C under setting [8] was 97 % of control, the T/C under setting [9] is 95 % of control and the T/C under setting [10] is 105 % of control.

In the case of `CN(C)C1C(O)C2Oc3c(cc(O)c4c3C(=O)c3cc5c(c(O)c3C4=O)C(N)CC(C)(O)C5)C(C)(O2)C1O` (configuration not stated), under “dose: 5.0 mg/kg/injection, schedule: Q01DX009 (ip), vehicle: other”, the T/C was 118 % of control.

For the compound `O=C(O)c1ccc(C(=O)NCCCN(CCCCN(CCCNC(=O)c2ccc(C(=O)O)c(O)c2O)C(=O)c2ccc(C(=O)O)c(O)c2O)C(=O)c2ccc(C(=O)O)c(O)c2O)c(O)c1O`, the T/C was 99 % of control (dose: 50.0 mg/kg/injection, schedule: Q01DX005 (ip), vehicle: saline); 101 % of control (dose: 100.0 mg/kg/injection, schedule: Q01DX005 (ip), vehicle: saline); 99 % of control (dose: 200.0 mg/kg/injection, schedule: Q01DX005 (ip), vehicle: saline).

For the compound `COC(=O)C1(C)OS(=O)(=O)c2ccccc21` (configuration not stated), the T/C under setting [1] was 101 % of control, the T/C under setting [2] is 101 % of control and the T/C under setting [3] was 104 % of control.

Regarding `CCOC(=O)Cc1csc(=S)n1CC`, the T/C is 98 % of control under setting [11], 98 % of control under setting [12] and 98 % of control under setting [13].

For the origin of these results see PubChem BioAssay AID330 (DTP/NCI, 2004).
